Results published in patent US20230000813A1, “COMPOUND FOR THE TREATMENT OF BOVINE OR SWINE RESPIRATORY DISEASE” (Intervet Inc., priority 2016, published 2023).
In brackets after ≈: the same amount, converted by molar mass. Several values for one entry are separate records, joined by “and”; a condition that tells them apart may be missing. Equal entries are not always repeated.

What was measured:
[1] = Plasma and tissue concentrations and pharmacokinetics in infected calves (Example 9); type: in vivo, cattle calves
Method: (§1) Unless otherwise described the study was conducted as described in Example 8.

[2] = system: 20 isolates of Actinobacillus (A.) pleuropneumoniae; assay: MIC50/MIC90, broth-microdilution, European respiratory tract isolates; type: cell-based
Method: (§2) The in vitro activity of compounds against 20 isolates of Actinobacillus (A.) pleuropneumoniae, 20 of Bordetella (B.) bronchiseptica, 20 of Histophilus (H.) somni, 40 of Mannheimia (M.) haemolytica and 40 of Pasteurella (P.) multocida collected in different European countries were determined. All bacteria were isolated from the respiratory tract of swine and cattle suffering from respiratory disease. All isolates were epidemiologically unrelated as specified by the different suppliers.
(§3) The minimum inhibitory concentrations (MIC) of compounds according to the invention were determined by the broth-microdilution method according to CLSI document VET01-A4.
(§4) Microdilution trays containing a doubling dilution series of the test compounds were used for the tests.
(§5) The MIC results were interpreted according to the CLSI documents VET01-S3. The lowest concentration of compound at which no visible growth (i.e. no turbidity) detected by the unaided eye was recorded as the MIC.

[3] = system: 40 isolates of Mannheimia (M.) haemolytica; assay: as above; type: cell-based
Method: as §2, §3, §4, §5

[4] = system: 20 isolates of Histophilus (H.) somni; assay: as above; type: cell-based
Method: as §2, §3, §4, §5

[5] = system: 20 isolates of Bordetella (B.) bronchiseptica; assay: as above; type: cell-based
Method: as §2, §3, §4, §5

[6] = system: 40 isolates of Pasteurella (P.) multocida; assay: as above; type: cell-based
Method: as §2, §3, §4, §5

[7] = system: Pasteurella multocida PM 6391 (ATCC 43137, reference strain); assay: MIC, broth-microdilution (CLSI VET01-A4); type: cell-based; conditions: strain PM 6391
In short: (§6)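 Broth microdilution per CLSI VET01-A4 using doubling dilution series of test compound; results interpreted per CLSI VET01-S3. MIC recorded as lowest concentration giving no turbidity visible to the unaided eye.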

[8] = system: Pasteurella multocida PM 12080 (IV102277-0093, BRD field isolate); assay: MIC, broth-microdilution (CLSI VET01-A4); type: cell-based; conditions: strain PM 12080
In short: as §6

[9] = system: Mannheimia haemolytica MH 12587 (1071, BRD field isolate, macrolide-resistance: erm+, E+); assay: MIC, broth-microdilution (CLSI VET01-A4); type: cell-based; conditions: strain MH 12587, macrolide-resistant
In short: as §6

[10] = system: Pasteurella multocida PM 10775 (080130003051, BRD field isolate); assay: MIC, broth-microdilution (CLSI VET01-A4); type: cell-based; conditions: strain PM 10775
In short: as §6

[11] = system: Mannheimia haemolytica MH 10720 (154, BRD field isolate); assay: MIC, broth-microdilution (CLSI VET01-A4); type: cell-based; conditions: strain MH 10720
In short: as §6

[12] = system: Pasteurella multocida PM 6267 (P 2225 (L386), reference strain, mouse infection strain); assay: MIC, broth-microdilution (CLSI VET01-A4); type: cell-based; conditions: strain PM 6267
In short: as §6

[13] = system: Mannheimia haemolytica MH 6374 (ATCC 33396, reference strain); assay: MIC, broth-microdilution (CLSI VET01-A4); type: cell-based; conditions: strain MH 6374
In short: as §6

[14] = system: Mannheimia haemolytica MH 6357 (M7/2, reference strain, cattle infection strain); assay: MIC, broth-microdilution (CLSI VET01-A4); type: cell-based; conditions: strain MH 6357
In short: as §6

[15] = system: Mannheimia haemolytica MH 12180 (KLI-02944, BRD field isolate); assay: MIC, broth-microdilution (CLSI VET01-A4); type: cell-based; conditions: strain MH 12180
Method: (§7) The Minimum inhibitory concentrations (MIC) of compounds according to the invention were determined by the broth-microdilution method according to CLSI document VET01-A4.
(§8) Microdilution trays containing a doubling dilution series of the test compound were used for the tests.
as §5

[16] = system: Staphylococcus aureus SA 5816 (2139, mastitis field isolate); assay: MIC, broth-microdilution (CLSI VET01-A4); type: cell-based; conditions: strain SA 5816
Method: as §7, §8, §5

[17] = system: Pasteurella multocida PM 14426 (0006-439, BRD field isolate, macrolide-resistant); assay: MIC, broth-microdilution (CLSI VET01-A4); type: cell-based; conditions: strain PM 14426, macrolide-resistant
Method: as §7, §8, §5

[18] = system: Staphylococcus aureus SA 6114 (ATCC 29213, reference strain); assay: MIC, broth-microdilution (CLSI VET01-A4); type: cell-based; conditions: strain SA 6114
Method: as §7, §8, §5

[19] = system: Acinetobacter baumanii AB 16496 (ATCC 19606, reference strain); assay: MIC, broth-microdilution (CLSI VET01-A4); type: cell-based; conditions: strain AB 16496
Method: as §7, §8, §5

[20] = system: Acinetobacter baumanii AB 15919 (IV369-2012, dermatitis field isolate); assay: MIC, broth-microdilution (CLSI VET01-A4); type: cell-based; conditions: strain AB 15919
Method: as §7, §8, §5

[21] = system: M. haemolytica M7/2; assay: Mannheimia haemolytica cattle lung infection model, efficacy (Example 9); type: in vivo, cattle calves; conditions: for Food consumption, cumulated for all animals in the group: 3 calves, SC 10 mg/kg BW
Method: as §1
Calves were infected via intratracheal instillation of appr. 300 mL of M. haemolytica PBS suspension containing approximately 4×10^9 CFU M. haemolytica in late log phase on Day 0.
The following clinical findings were recorded: The general behavior scores of the animals before (DO am) and after infection with M. haemolytica in the different treated and control groups are indicated in FIG. 7-1: 0 =normal; 1=slightly depressive, 2=moderately depressive, 3=highly depressive, […] recumbency.
The following pathomorphological findings after section on Day 2 were recorded: After measuring the body weight and the lung weight the Lung body mass ratio was calculated as shown in FIG. 7-2. A healthy animal has a lung body mass ration around 1.7 or lower. The area percentage of lung consolidations compared to the total lung tissue and the lung score determined that is a combined score of such percentage of lung consoldiations and the grade. For the “grade” the degree of lung consolidation score was graded from 0 to 3 for each of eight lung lobes: 0 no visible changes, 1 low graded colour changes or induration, 2 medium graded induration, 3 high graded induration, hepatisation, necrosis.
The geometrical means (CFU/g tissue) of bacteriological re-isolations of Mannheimia haemolytica from lung tissue are illustrated in FIG. 7-4.

[22] = SC single 10 mg/kg (C.105, C.189 in 10% Poloxamer 188; C.326 in 30% Captisol), individual animals and mean
[23] = SC single 10 mg/kg (C.105, C.189 in 10% Poloxamer 188; C.326 in 30% Captisol), individual animals and mean, 10 mg/kg
[24] = plasma, SC 10 mg/kg, mean, Phoenix WinNonlin
[25] = calves infected with M. haemolytica, SC, single, 10 mg/kg BW, x = number of animals, n = total in group

## COCCNCc1ccc(C#Cc2ccc(C(=O)N[C@H](C(=O)NO)[C@@H](C)O)cc2)s1 [C. 189]
[1]; [22]
  Concentration, Plasma 48 h: BLQ
  Concentration, Tissue (48 h) ELF: BLQ
  Concentration, Tissue (48 h) Liver: 22.5 ng/mL
  Concentration, Tissue (48 h) Lung: BLQ
  Concentration, Tissue (48 h) Muscle: BLQ
[1]; [23]
  Concentration, Plasma 0.5 h: 916 ng/mL and 892 ng/mL and 1350 ng/mL
  Concentration, Plasma 2 h: 465 ng/mL and 663 ng/mL and 788 ng/mL
  Concentration, Plasma 4 h: 433 ng/mL and 300 ng/mL and 430 ng/mL
  Concentration, Plasma 6 h: 339 ng/mL and 293 ng/mL and 289 ng/mL
  Concentration, Plasma 24 h: 31.3 ng/mL and 20.3 ng/mL and 21.8 ng/mL
  Concentration, Tissue (48 h) Kidney: BLQ (2×) and 25.1 ng/mL
  Concentration, Tissue (48 h) Liver: BLQ
[1]; [24]
  AUClast: 6236 ng·h/mL
  CI_F_obs: 26.08 mL/min/kg
  Cmax: 1053 ng/mL
  HL_Lambda_z (Half life time): 4.98 h
  MRTlast (Mean retention time till last measured value): 4.75 h
  Tmax: 0.5 h
  Vz_F_obs: 11.2 L/kg
[1]; predose, SC single 10 mg/kg (C.105, C.189 in 10% Poloxamer 188; C.326 in 30% Captisol), individual animals and mean
  Concentration, Plasma 0 h: BLQ
[2]
  MIC50: 0.25 µg/mL (≈ 0.579 µM)
  MIC90: 0.25 µg/mL (≈ 0.579 µM)
[3]
  MIC50: 0.25 µg/mL (≈ 0.579 µM)
  MIC90: 0.5 µg/mL (≈ 1.16 µM)
[4]
  MIC50: 0.032 µg/mL (≈ 0.0742 µM)
  MIC90: 0.063 µg/mL (≈ 0.146 µM)
[5]
  MIC50: >16 µg/mL
  MIC90: >16 µg/mL
[6]
  MIC50: 0.032 µg/mL (≈ 0.0742 µM)
  MIC90: 0.063 µg/mL (≈ 0.146 µM)
[7]
  MIC: 0.25 µg/mL (≈ 0.579 µM)
[8]
  MIC: 0.063 µg/mL (≈ 0.146 µM)
[9]
  MIC: 1 µg/mL (≈ 2.32 µM)
[10]
  MIC: ≤0.016 µg/mL
[11]
  MIC: 0.125 µg/mL (≈ 0.29 µM)
[12]
  MIC: 0.5 µg/mL (≈ 1.16 µM)
[13]
  MIC: 0.25 µg/mL (≈ 0.579 µM)
[14]
  MIC: 0.5 µg/mL (≈ 1.16 µM)
[15]
  MIC: 0.25 µg/mL (≈ 0.579 µM)
[16]
  MIC: >16 µg/mL
[17]
  MIC: 0.032 µg/mL (≈ 0.0742 µM)
[18]
  MIC: >16 µg/mL
[19]
  MIC: >16 µg/mL
[20]
  MIC: >16 µg/mL
[21]; D 0 am, after infection and treatment
  Food consumption, cumulated for all animals in the group: 4800 g
[21]; D 0 pm
  Food consumption, cumulated for all animals in the group: 4800 g
[21]; D +1 am
  Food consumption, cumulated for all animals in the group: 4800 g
[21]; D +1 pm
  Food consumption, cumulated for all animals in the group: 4800 g
[21]; D −1 (before infection)
  Food consumption, cumulated for all animals in the group: 4800 g
[21]; [25]
  Bacteriological Cure (x of n): 1/3
  Survival (x of n): 3/3
[21]; tested dosage of 10 mg/kg, conclusion in words
  efficacy against an artificial lung infection with M. haemolytica M7/2 in the calf: effective
